Conditions: in n-octanol

O=C(O)c1ccccc1[N+](=O)[O-]
Conditions | solubility (mole fraction)
297.15 K | 0.0761
299.65 K | 0.0806
300.15 K | 0.084
302.05 K | 0.0895
303.15 K | 0.0928
306.15 K | 0.101
307.15 K | 0.104
308.35 K | 0.108
309.25 K | 0.113
310.15 K | 0.117
311.75 K | 0.122
313.15 K | 0.129
314.85 K | 0.135
317.15 K | 0.141
318.65 K | 0.147
319.85 K | 0.154
321.15 K | 0.161

Cc1ccccc1C(=O)O
Conditions | solubility (mole fraction)
297.15 K | 0.155
299.65 K | 0.165
301.15 K | 0.18
302.65 K | 0.19
304.75 K | 0.196
305.35 K | 0.197
306.25 K | 0.2
306.95 K | 0.208
308.95 K | 0.219
310.65 K | 0.23
312.25 K | 0.239
314.05 K | 0.25
315.75 K | 0.26
316.95 K | 0.271
318.75 K | 0.281
320.35 K | 0.294
321.55 K | 0.305

O=C(O)c1ccc(O)cc1
Conditions | solubility (mole fraction)
297.65 K | 0.105
299.95 K | 0.107
301.45 K | 0.109
302.85 K | 0.11
304.25 K | 0.112
305.85 K | 0.113
306.95 K | 0.115
308.15 K | 0.116
309.85 K | 0.117
311.25 K | 0.119
313.15 K | 0.121
315.45 K | 0.122
317.25 K | 0.124
318.65 K | 0.126
320.55 K | 0.128
322.25 K | 0.13

Cc1ccc(C(=O)O)cc1
Conditions | solubility (mole fraction)
297.35 K | 0.0595
298.05 K | 0.0608
298.95 K | 0.0618
301.65 K | 0.0663
307.25 K | 0.0767
308.65 K | 0.0789
309.65 K | 0.0816
312.95 K | 0.0871
314.35 K | 0.0896
315.8 K | 0.0925
317.65 K | 0.0962
319.65 K | 0.0997
320.4 K | 0.101
321.55 K | 0.103
322.15 K | 0.104

O=C(O)c1ccccc1
Conditions | solubility (mole fraction)
300.15 K | 0.192
